Experimental data as given in patent US20090053138A1, “Stabilized Aptamers to Platelet Derived Growth Factor and their Use as Oncology Therapeutics” (priority 2002, published 2009).
{PEG40k} = 40 kDa polyethylene glycol; [invdT] = inverted (3'-3') thymidine; [HEG] = hexaethylene glycol spacer

Legend:
[1] = target: T1, PDGF BB (Homo sapiens, UniProt P01127); test: Competition binding assay, PDGF-BB; parameters: purchased PeproTech, Rocky Hill, N.J; settings: scrambled variant
Description: Binding reactions were carried out in phosphate-buffered saline (Cellgro, Herndon, Va.) containing 0.2 mg/mL bovine serum albumin (NEB) and 0.02 mg/mL tRNA (Sigma, St. Louis, Mo.). The reactions were equilibrated for a period of 15-30 minutes at room temperature, then filtered through a sandwich of nitrocellulose (Protran membrane, Perkin-Elmer, Boston, Mass.) and nylon (Hybond membrane, Amersham, Piscataway, N.J.) membranes to separate target bound aptamer from free aptamer.
Next, a study was done to determine whether ARC126 cross reacted with PDGF-BB of species other than human. Competition binding assays were set up by dot blot analysis, as previously described, using human, rat, and mouse PDGF-BB (PeproTech, Rocky Hill, N.J.).
The competitive binding assay previously described was used to determine the in vitro binding affinity and selectivity of ARC594 for different PDGF isoforms. Different concentrations of unlabeled, competitor aptamer were titrated in separate reactions against a fixed (<0.1 nM) amount of ^32P-radiolabeled ARC594 in buffer containing a fixed amount (0.1 nM) of the aptamer's cognate target (PDGF-BB; PeproTech). UnPEGylated version of ARC594 was radiolabeled at the 5′ terminus by incubation with γ-^32P-ATP (ICN) and polynucleotide kinase (NEB). Binding reactions were carried out in phosphate-buffered saline (Cellgro) containing 0.2 mg/mL bovine serum albumin (NEB) and 0.02 mg/mL tRNA (Sigma). The reactions were equilibrated for a period of 15-30 minutes at room temperature, then filtered through a sandwich of nitrocellulose (Protran membrane, Perkin-Elmer) and nylon (Hybond membrane, Amersham) membranes to separate target bound aptamer from free aptamer. […] The data was expressed as the ratio of the counts per minute (CPM) of radioactivity due to ^32P-ARC594 bound to PDGF BB on the nitrocellulose membrane (CPMnitrocellulose or CPMnc) over the total CPM (CPMtotal=CPMnitrocellulose+CPMnylon).

[2] = test system: LS174T colon cancer xenograft
Text: Experimental overview. Human HT-29 or LS174T colon cancer xenotransplants were established in athymic nude mice (Nu/Nu mice, Charles River Labs, Wilmington, Mass.) by injecting mice with 1×10^7 HT29 cells (ATCC, Manassas, Va.), or 2×10^6 LS174T cells (ATCC Manassas, Va.) sub-cutaneously and allowing the tumors to grow for 5 days. On day 5, two dimensional measurements of the established tumors were taken using a digital caliper. Once tumor measurements were taken, the mice were randomized into groups such that the average tumor size was the same in each group. […]
A third experiment (Experiment 3) was designed to test ARC308/irinotecan and GLEEVEC™/irinotecan dosing regimens in a colon cancer xenotransplant model using human colon carcinoma cell line LS174T (ATCC). […] ARC308 was dosed via intraperitoneal delivery at 50 mg/kg once daily, and GLEEVEC™ was dosed at 50 mg/kg once daily, Monday through Friday. ARC308 prevents PDGF-BB from binding the PDGF receptor; this molecule has a 30K PEG attached. […] The results are statistically significant (two tailed students T-test).
An efficacy analysis of three treatment groups in this study is shown in Table 10 in terms of log cell kill and log cell kill net. Log cell kill is the log(base10) of the number of tumor cells before treatment divided by the number of cells after treatment. […] A fourth experiment (Experiment 4) was designed to further test ARC308/irinotecan dosing regimens in a colon cancer xenotransplant model using human colon carcinoma cell line LS174T (ATCC). […]

[3] = target: T1, PDGF BB; settings: in vivo, iv, 10 mg/kg
Description: As a secondary test of both the plasma pharmacokinetics and the in vivo bioactivity of ARC594 the competition binding assay was used to assay the same plasma samples used to generate the pharmacokinetic data. Serial 1:10 dilutions of plasma sample were prepared in phosphate-buffered saline (1×PBS) and mixed with a fixed concentration of ^32P-ARC594, then added to human PDGF-BB. The final concentration of PDGF in each assay was 0.1 nM, and the final concentration of ^32P-ARC594<0.1 nM. In this experiment, the plasma samples were analyzed by comparison with a standard curve generated with samples of known ARC594 concentrations in 1×PBS.

[4] = test system: U87 glioblastoma cells; test: Clonogenic growth assay; type: cell-based
Description: U87 glioblastoma cells (ATCC) were grown in the presence or absence of mitogen as well as aptamer as shown in the panels. U87 cells were plated in DMEM/10% FBS to 50% confluency in 100 mm dishes. […] The addition of a final concentration of 50 ng/ml PDGF BB alone caused the appearance of highly connected three dimensional cell clusters. […] Thus, the aptamer blocks cell to cell adhesion of U87 cells which are known to have PDGF driven autocrine loops.

T1 sequence (P01127 82-190 limits assumed): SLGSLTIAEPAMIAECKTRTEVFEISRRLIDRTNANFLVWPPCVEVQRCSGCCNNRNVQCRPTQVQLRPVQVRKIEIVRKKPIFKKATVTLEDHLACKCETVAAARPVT

Substance | binding to PDGF [1] | efficacy of irinotecan (rate of tumor growth) ([2]; Experiment 2: ARC127 50 mg/kg IP once daily + irinotecan 150 mg/kg weekly vs irinotecan alone) | dose-limiting side effects ([2]; in vivo experiments) | active aptamer in plasma [3] | proliferation rate of U87 cells (MTT assay) [4] | occurrence of three dimensional cell clusters ([4]; 50 ng/ml PDGF-BB plus ARC127)
5′-(SEQ ID NO.4)-HEG-(SEQ ID NO:5)-HEG-(SEQ ID NO:6)-3 (chain 1 CAGCGUACG; chain 2 CGTACCGATUCA; chain 3 TGAAGCUG; HEG spacers joining pieces; synthetic aptamer; modified_base (4)..(4) cytidine is 2′-fluoro; modified_base (5)..(5) gm; modified_base (6)..(6) uridine is 2′-fluoro; modified_base (8)..(8) cytidine is 2′-fluoro; modified_base (9)..(9) gm; modified_base (7)..(7) gm; modified_base (10)..(10) uridine is 2′-fluoro; modified_base (11)..(11) cytidine is 2′-fluoro; modified_base (12)..(12) adenosine is 2′-O-Methyl; modified_base (6)..(6) cytidine is 2′-fluoro; modified_base (7)..(7) uridine is 2′-fluoro; modified_base (8)..(8) gm) [ARC128, reference compound] | no longer binds PDGF |  |  |  |  | 
5′-[40 K PEG]-(SEQ ID NO:1)-HEG-(SEQ ID NO:2)-HEG-(SEQ ID NO:3)-3′-dT-3′ (chain 1 CAGGCUACG; chain 2 CGTAGAGCAUCA; chain 3 TGATCCUG; piece 1: 2'-fluoro at 6, 8, 2'-O-methyl at 9, 5' {PEG40k}, 3' [HEG], other sugars and backbone not given here; piece 2: 2'-O-methyl at 5, 7, 12, 2'-fluoro at 10, 11, 3' [HEG], other sugars and backbone not given here; piece 3: 2'-fluoro at 5, 6, 7, 2'-O-methyl at 8, 3' [invdT], other sugars and backbone not given here) [ARC127] |  | enhanced the efficacy of irinotecan treatment | not evident | present and active | no effect on proliferation rate | reduced the occurrence of clusters to background level
